Test results published in patent US9381172B2, “Small molecule choline kinase inhibitors, screening assays, and methods for treatment of neoplastic disorders” (UNIVERSITY OF LOUISVILLE RESEARCH FOUNDATION, INC., priority 2009, dated 2016).
Like-named read-outs stand apart in the source and are kept apart here.

Experiments:
HeLa Cells [1] = test: Cell Growth Inhibition, HeLa cells (trypan blue exclusion); format: cell-based; settings: for IC50: Homo sapiens, HeLa, 48 h after treatment, 50% of vehicle-treated cell growth
Procedure: (§1) HeLa (ATCC: CCL-2), A549-human lung carcinoma (ATCC: CCL-185), Lewis lung carcinoma (LLC) (ATCC: CRL-1642), and melanoma cells (ATCC: CRL-11147) were cultured in DMEM (Hyclone) supplemented with 10% fetal bovine serum (Hyclone) and 50 μg/mL gentamicin sulfate (Invitrogen). Jurkat leukemia cells were cultured in RPMI (Hyclone) supplemented with 10% fetal bovine serum and 50 μg/mL gentamicin sulfate. Human mammary epithelial cells were grown in mammary epithelial basal medium (Lonza) supplemented according to manufacturer's protocol. All cell lines were maintained at 5% CO2 at 37° C.
(§2) All cell lines were plated at 1×10^5/mL in the appropriate medium. For suspension cells, the tested compound was added immediately to the medium, whereas the tested compound treatment was initiated the following day for adherent cell lines. For overexpression studies, HeLa cells were transiently transfected with empty vector or vector containing wild type choline kinase twenty-four hours prior to addition of increasing concentrations of CK37. Cells were then collected 48 h after treatment, and cell number and viability were determined by trypan blue exclusion. IC50s were calculated at the tested compound concentration needed for 50% of vehicle-treated cell growth (see Table 4). The data represented are the mean±STD from triplicate measurements from three independent experiments.

Jurkat Cells = test: Cell Growth Inhibition, Jurkat cells (trypan blue exclusion); format: cell-based; settings: for IC50: Homo sapiens, Jurkat, 48 h after treatment, 50% of vehicle-treated cell growth
Procedure: as §1, §2

[2] = tested on: primary mammary epithelial cells (HMEC); test: Cell Growth Inhibition, primary mammary epithelial cells; format: cell-based, human; settings: FIG. 3B
Procedure: as §1, §2

[3] = Tolerability of intraperitoneal CK37 in C57B1/6 mice; format: in vivo
Procedure: In order to investigate some possible non-toxic doses of CK37 for use in vivo, we intraperitoneally injected C57B1/6 mice with 0.06, 0.07, and 0.08 mg/g of CK37. […] C57B1/6 mice bearing Lewis Lung Carcinoma xenografts (mean baseline mass=143±14 mg) were given intraperitoneal injections of 0.08 mg/g CK37 daily for nine days. As shown in FIG. 5A-B, CK37 administration suppressed tumor growth by 48% compared to the vehicle control group.

[4] = tested on: MDA-MB-231 mammary carcinoma cells; test: Cell Growth Inhibition, MDA-MB-231 cells; format: cell-based; settings: FIG. 3B
Procedure: as §2

[5] = tested on: various neoplastic cell lines from both solid and hematologic origins; test: Cell Growth Inhibition, various neoplastic cell lines; format: cell-based; settings: all tumor cell lines investigated; FIG. 3A; read-out: IC50 values of cell growth suppression
Procedure: as §1, §2

HeLa Cells [6] = test: Soft agar colony formation; format: cell-based; settings: 5 μM CK37; 14 days; Control: 2506±158
Procedure: HeLa cells were plated at a density of 25×10^3 cells per 60-mm plate with 3 mL bottom agar (0.6%) and 2 mL top agar (0.3%) in normal growth medium. Cells were fed every three days by addition of a new layer of top agar which contained increasing concentrations of the tested compound. After 14 days of growth, colonies were counted in random from 1 cm squared sections of each plate.

Lewis Lung Carcinoma = test: Mouse tumors: Lewis lung carcinoma in C57B1/6 mice; format: in vivo; settings: 0.08 mg/g i.p. daily for nine days
Procedure: Exponentially growing Lewis lung carcinoma cells were collected, washed twice, and resuspended in PBS (1×10^7/mL). C57B1/6 female mice (20 g) were injected s.c. with 0.1 mL of the suspension. Body weight and tumor growth were monitored daily throughout the study. Tumor masses were determined by measurement with Vernier calipers using the formula: mass (mg)=[width^2 (mm)×length (mm)]/2. Mice with established tumors (between 130 and 190 mg) were randomized into vehicle control or the tested compound treated groups. Vehicle control groups received i.p. injections of 50 μL DMSO, whereas treated groups received 0.08 mg/g the tested compound in 50 μL DMSO at the indicated time points. All protocols were approved by the University of Louisville Institutional Animal Care and Use Committee.

[7] = tested on: endogenous choline kinase (HeLa cells); test: Choline kinase activity in whole HeLa cells (radiolabeled choline); format: cell-based
Procedure: For HeLa cell labeling, cells were seeded at 1×10^5 cells/mL and incubated with increasing concentrations of the tested compound for 48 hours. Methyl[^14C]-choline chloride was added 24 hours before cell harvest, and cells were extracted and analyzed as described above. Densitometry units were normalized to total protein levels for each sample.

[8] = tested on: choline kinase (HeLa lysates); test: Choline kinase activity assay of HeLa cell lysates; format: biochemical; settings: HeLa cell lysate; FIG. 7
Procedure: Choline kinase activity was assayed as described previously in Hernandez-Alcoceba et al. “Choline kinase inhibitors as a novel approach for antiproliferative drug design,” Oncogene 1997, 15:2289-2301, the disclosure of which is incorporated herein by this reference. For HeLa cell lysate, equal volume of lysate was incubated in the presence or absence of the tested compound in kinase assay buffer (100 mM Tris-HCl, 100 mM MgCl2, 10 mM ATP, 200 μM choline, and 2 μM methyl[^14C]-choline chloride (50-60 μCi, mmol). Reactions were carried out at 37° C. for one hour and immediately stopped by addition of TCA (Trichloroacetic Acid) to a final concentration of 16%. The TCA soluble fraction was then washed 3× with four volumes of water saturated ethyl ether, and dried under vacuum. Metabolites were separated by thin layer chromatography using 60 Å silica gel plates and a liquid phase consisting of 0.9% NaCl:methanol:ammonium hydroxide (50:70:5; V:V:V). Radioactive images were resolved by PhosphorImager screening and densitometry was performed using Image Quant software.

[9] = tested on: HT-29 human adenocarcinoma cells; settings: reported; cited from earlier work
choline kinase = settings: reported; cited from earlier work
[10] = tested on: HeLa cell endogenous choline kinase; settings: reported; cited from earlier work
[11] = reported; cited from earlier work

Structure (SMILES) | IC50 (HeLa Cells [1]) | IC50 (Jurkat Cells) | also measured
CCC1(c2ccccc2)NC(=O)N(CC(=O)c2ccc(OC)cc2OC)C1=O (stereo not shown) [A] | > 25 µM | > 10 µM | 
CCc1ccc(-c2nnc(SCC(=O)Nc3cc(C)cc(C)c3)[nH]2)cc1 [CK37, N-(3,5-dimethylphenyl)-2-[[5-(4-ethylphenyl)-1H-1,2,4-triazol-3-yl]sulfanyl]acetamide] | 4.2 µM | 5.4 µM | CK37 concentration compared for growth suppression [2]: 10 µM; clinical signs or symptoms of distress ([3]; 0.06, 0.07, and 0.08 mg/g intraperitoneally): no clinical signs or symptoms of distress; dose limiting toxicity ([3]; mice): > 80 mg/kg; CK37 concentration compared for growth suppression ([4]; MDA-MB-231): 0.5 µM; difference in selectivity against neoplastic versus primary cell growth ([4]; MDA-MB-231 versus HMEC): 20 fold; IC50 [5]: 5 to 10 µM; number of soft agar colonies (HeLa Cells [6]): 360±77; tumor growth suppression compared to the vehicle control group (Lewis Lung Carcinoma): 48%; wet weight of resected tumors at the end of treatment (Lewis Lung Carcinoma; Vehicle: 1109±107 mg, p<0.01): 648 ± 96 mg; inhibition of endogenous choline kinase activity in whole cells ([7]; 10 μM, 48 hours, FIG. 2B): 61.7%±9.7%; decrease in HeLa cell endogenous choline kinase ([7]; about the same concentration as MN58B, somewhat different conditions): 60%
COc1ccc(OCC(=O)OC(C)C(=O)Nc2cccc3ccccc23)cc1 (stereo not shown) [CP6] | 12.6 µM | 9.8 µM | HeLa cell proliferation (HeLa Cells [1]; FIG. 8): selectively suppresses HeLa cell proliferation; Jurkat cell proliferation (Jurkat Cells; FIG. 9): selectively suppresses Jurkat cell proliferation; endogenous choline kinase activity [8]: dose-dependent decrease in endogenous choline kinase activity
CSc1ccc(C=CC(=O)OCC(=O)NC(Cc2ccccc2)C(C)=O)cc1 (stereo not shown) [C] | 15.2 µM | > 10 µM | 
CC(OC(=O)CCC(=O)c1cccs1)C(=O)Nc1cccc2ccccc12 (stereo not shown) [G] | > 25 µM | > 10 µM | 
CCC(=O)c1ccc(OCC(=O)OCc2csc(-c3ccc(OC)cc3)n2)cc1 [I] | > 25 µM | > 10 µM | 
CN(C)c1cc[n+](Cc2ccc(CCCCc3ccc(C[n+]4ccc(N(C)C)cc4)cc3)cc2)cc1.[Br-].[Br-] [MN58B] |  |  | IC50 [9]: 0.5 µM; IC50 (choline kinase): 4.2 µM; inhibition in HeLa cell endogenous choline kinase [10]: 75%; dose limiting toxicity [11]: 5 to 10 mg/kg
C=CCn1c(COc2cccc(C)c2)nnc1SCc1ncc(-c2ccccc2)o1 [O] | > 25 µM | > 10 µM | 

Continued, in another order:

IC50 (HeLa Cells [1]) | IC50 (Jurkat Cells) | Structure (SMILES) | also measured
> 25 µM | > 10 µM | C[C@@]1(c2ccc3ccccc3c2)NC(=O)N(CC(=O)OCC(=O)NCCC#N)C1=O [B] | 
> 25 µM | > 10 µM | CCc1ccc(C(=O)CN2C(=O)NC(CC)(c3ccccc3)C2=O)cc1 (stereo not shown) [E] | 
> 25 µM | > 10 µM | CCCNC(=O)COC(=O)CN1C(=O)N[C@@](C)(c2ccc(C)cc2)C1=O [H] | 
> 25 µM | > 10 µM | COc1cc(C(C)=O)ccc1OCC(=O)NCc1ccc(C)cc1 [J] | 
> 25 µM | > 10 µM | COc1ccccc1CNC(=O)CN1C(=O)NC(C)(c2ccc(C)cc2)C1=O (stereo not shown) [K] | 
> 25 µM | > 10 µM | COCCNC(=O)CN1C(=O)NC(C)(c2ccc(C)cc2)C1=O (stereo not shown) [M] | 
18.3 µM | > 10 µM | COc1ccccc1COC(=O)CN1C(=O)N[C@@](C)(c2ccc(C)cc2)C1=O [P] | 
